Measured values from ChEMBL document CHEMBL5463725, “Data for DCP probe BAY-277” (2023).

Legend:
[1] = target: Estrogen receptor (Homo sapiens) (UniProt P03372); test: Inhibition of Estrogen Eralpha at 10.0 µM in the Eurofins Panlabs Safety Screen; conditions: Compound concentration 10.0 uM
[2] = target: Alpha-1A adrenergic receptor (Rattus norvegicus) (UniProt P43140); test: Inhibition of Adrenergic alpha1A at 10.0 µM in the Eurofins Panlabs Safety Screen; conditions: Compound concentration 10.0 uM
[3] = target: Protein kinase C alpha type (Homo sapiens) (UniProt P17252); test: Inhibition of PKCalpha(h) at 10.0 µM in the Eurofins Kinase panel; conditions: Compound concentration 10.0 uM
[4] = target: Dual specificity protein kinase CLK4 (Homo sapiens) (UniProt Q9HAZ1); test: Inhibition of CLK4(h) at 10.0 µM in the Eurofins Kinase panel; conditions: Compound concentration 10.0 uM
[5] = target: 5-hydroxytryptamine receptor 7 (Homo sapiens) (UniProt P34969); conditions: Compound concentration 10.0 uM
[6] = target: Mu-type opioid receptor (Homo sapiens) (UniProt P35372); conditions: Compound concentration 10.0 uM
[7] = target: Nitric oxide synthase 1 (Homo sapiens) (UniProt P29475); test: Inhibition of Nitric Oxide Synthase, Neuronal (nNOS) at 10.0 µM in the Eurofins Panlabs Safety Screen; conditions: Rattus norvegicus; Compound concentration 10.0 uM
[8] = target: T1, 5-hydroxytryptamine receptor 1A (Homo sapiens) (UniProt P08908); conditions: Compound concentration 10.0 uM
T1 sequence (whole entry): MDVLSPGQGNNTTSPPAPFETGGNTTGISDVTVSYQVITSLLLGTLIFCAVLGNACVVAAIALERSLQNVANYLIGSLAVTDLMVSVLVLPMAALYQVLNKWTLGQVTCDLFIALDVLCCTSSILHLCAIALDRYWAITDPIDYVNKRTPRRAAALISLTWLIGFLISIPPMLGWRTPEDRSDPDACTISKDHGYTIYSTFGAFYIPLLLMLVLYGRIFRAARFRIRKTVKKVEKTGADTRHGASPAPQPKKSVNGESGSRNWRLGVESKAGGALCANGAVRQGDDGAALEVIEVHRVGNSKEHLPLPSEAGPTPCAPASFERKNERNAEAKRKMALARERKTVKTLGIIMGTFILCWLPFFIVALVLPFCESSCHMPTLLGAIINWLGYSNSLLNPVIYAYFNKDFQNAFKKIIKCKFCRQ

[9] = target: Serine/threonine-protein kinase 38 (Homo sapiens) (UniProt Q15208); test: Inhibition of NDR1(h) at 10.0 µM in the Eurofins Kinase panel; conditions: Compound concentration 10.0 uM
[10] = target: 5-hydroxytryptamine receptor 2A (Homo sapiens) (UniProt P28223); test: Inhibition of Serotonin (5-Hydroxytryptamine) 5-HT2A at 10.0 µM in the Eurofins Panlabs Safety Screen; conditions: Compound concentration 10.0 uM
[11] = target: Beta-2 adrenergic receptor (Homo sapiens) (UniProt P07550); conditions: Compound concentration 10.0 uM
[12] = target: Sodium-dependent serotonin transporter (Homo sapiens) (UniProt P31645); test: Inhibition of Transporter, Serotonin (5-Hydroxytryptamine) (SERT) at 10.0 µM in the Eurofins Panlabs Safety Screen; conditions: Compound concentration 10.0 uM
[13] = target: Mu-type opioid receptor (Homo sapiens) (UniProt P35372); test: Inhibition of Opiate µ(OP3, MOP) at 10.0 µM in the Eurofins Panlabs Safety Screen; conditions: Compound concentration 10.0 uM
[14] = target: D(3) dopamine receptor (Homo sapiens, UniProt P35462); test: GPCRScan assay: inhibition of D3; set-up: radioligand conc. used [nm] 0.5 – 1.8, parental cells HEKT
[15] = target: MAP kinase-activated protein kinase 2 (Homo sapiens) (UniProt P49137); test: Inhibition of MAPKAP-K2(h) at 10.0 µM in the Eurofins Kinase panel; conditions: Compound concentration 10.0 uM
[16] = target: Serine/threonine-protein kinase pim-2 (Homo sapiens) (UniProt Q9P1W9); test: Inhibition of Pim-2(h) at 10.0 µM in the Eurofins Kinase panel; conditions: Compound concentration 10.0 uM
[17] = target: Insulin receptor (Homo sapiens) (UniProt P06213); test: Inhibition of Insulin at 10.0 µM in the Eurofins Panlabs Safety Screen; conditions: Rattus norvegicus; Compound concentration 10.0 uM
[18] = target: D(2) dopamine receptor (Homo sapiens) (UniProt P14416); test: Inhibition of Dopamine D2S at 10.0 µM in the Eurofins Panlabs Safety Screen; conditions: Compound concentration 10.0 uM
[19] = target: Kappa-type opioid receptor (Homo sapiens) (UniProt P41145); test: Inhibition of Opiate kappa(OP2, KOP) at 10.0 µM in the Eurofins Panlabs Safety Screen; conditions: Compound concentration 10.0 uM
[20] = target: Sodium-dependent dopamine transporter (Homo sapiens, UniProt Q01959); conditions: Compound concentration 10.0 uM
[21] = target: T1, 5-hydroxytryptamine receptor 1A (Homo sapiens); test: Inhibition of Serotonin (5-Hydroxytryptamine) 5-HT1A at 10.0 µM in the Eurofins Panlabs Safety Screen; conditions: Compound concentration 10.0 uM
[22] = target: 5-hydroxytryptamine receptor 1B (Homo sapiens) (UniProt P28222); conditions: Compound concentration 10.0 uM
[23] = target: SNF-related serine/threonine-protein kinase (Homo sapiens) (UniProt Q9NRH2); test: Inhibition of SNRK(h) at 10.0 µM in the Eurofins Kinase panel; conditions: Compound concentration 10.0 uM
[24] = target: TGF-beta receptor type-2 (Homo sapiens) (UniProt P37173); test: Inhibition of TGFBR2(h) at 10.0 µM in the Eurofins Kinase panel; conditions: Compound concentration 10.0 uM
[25] = target: Serine/threonine-protein kinase DCLK3 (Homo sapiens) (UniProt Q9C098); test: Inhibition of DCAMKL3(h) at 10.0 µM in the Eurofins Kinase panel; conditions: Compound concentration 10.0 uM
[26] = target: Carbonic anhydrase 2 (Homo sapiens) (UniProt P00918); test: Inhibition of Carbonic Anhydrase II at 10.0 µM in the Eurofins Panlabs Safety Screen; conditions: Compound concentration 10.0 uM
[27] = target: Nitric oxide synthase, inducible (Homo sapiens) (UniProt P35228); test: Inhibition of Nitric Oxide Synthetase, Inducible (iNOS) at 10.0 µM in the Eurofins Panlabs Safety Screen; conditions: Mus musculus; Compound concentration 10.0 uM
[28] = target: 5-hydroxytryptamine receptor 2A (Homo sapiens) (UniProt P28223); conditions: Compound concentration 10.0 uM
[29] = target: Calcium/calmodulin-dependent protein kinase type 1G (Homo sapiens) (UniProt Q96NX5); test: Inhibition of CaMKIgamma(h) at 10.0 µM in the Eurofins Kinase panel; conditions: Compound concentration 10.0 uM
[30] = target: Ribosomal protein S6 kinase alpha-5 (Homo sapiens) (UniProt O75582); test: Inhibition of MSK1(h) at 10.0 µM in the Eurofins Kinase panel; conditions: Compound concentration 10.0 uM
[31] = target: Vascular endothelial growth factor receptor 3 (Homo sapiens) (UniProt P35916); test: Inhibition of Flt4(h) at 10.0 µM in the Eurofins Kinase panel; conditions: Compound concentration 10.0 uM
[32] = target: Activin receptor type-1-like (Homo sapiens) (UniProt P37023); test: Inhibition of ALK1(h) at 10.0 µM in the Eurofins Kinase panel; conditions: Compound concentration 10.0 uM
[33] = target: Tyrosine-protein kinase JAK2 (Homo sapiens) (UniProt O60674); test: Inhibition of JAK2(h) at 10.0 µM in the Eurofins Kinase panel; conditions: Compound concentration 10.0 uM
[34] = target: Serine/threonine-protein kinase pim-3 (Homo sapiens) (UniProt Q86V86); test: Inhibition of Pim-3(h) at 10.0 µM in the Eurofins Kinase panel; conditions: Compound concentration 10.0 uM

Beta-2 adrenergic receptor (Homo sapiens), sequence (P07550 whole entry, looked up): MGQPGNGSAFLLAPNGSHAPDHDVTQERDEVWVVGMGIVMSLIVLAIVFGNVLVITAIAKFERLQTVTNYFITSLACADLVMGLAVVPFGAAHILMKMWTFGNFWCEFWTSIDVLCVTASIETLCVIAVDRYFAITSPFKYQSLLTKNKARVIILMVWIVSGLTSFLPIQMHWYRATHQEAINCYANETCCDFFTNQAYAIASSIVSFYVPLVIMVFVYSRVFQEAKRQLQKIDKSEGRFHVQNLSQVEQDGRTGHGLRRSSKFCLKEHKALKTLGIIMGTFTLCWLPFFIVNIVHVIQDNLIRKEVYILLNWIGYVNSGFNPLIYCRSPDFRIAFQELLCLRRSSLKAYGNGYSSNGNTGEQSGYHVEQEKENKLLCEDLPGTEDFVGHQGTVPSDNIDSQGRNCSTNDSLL
Mu-type opioid receptor (Homo sapiens), sequence (P35372 whole entry): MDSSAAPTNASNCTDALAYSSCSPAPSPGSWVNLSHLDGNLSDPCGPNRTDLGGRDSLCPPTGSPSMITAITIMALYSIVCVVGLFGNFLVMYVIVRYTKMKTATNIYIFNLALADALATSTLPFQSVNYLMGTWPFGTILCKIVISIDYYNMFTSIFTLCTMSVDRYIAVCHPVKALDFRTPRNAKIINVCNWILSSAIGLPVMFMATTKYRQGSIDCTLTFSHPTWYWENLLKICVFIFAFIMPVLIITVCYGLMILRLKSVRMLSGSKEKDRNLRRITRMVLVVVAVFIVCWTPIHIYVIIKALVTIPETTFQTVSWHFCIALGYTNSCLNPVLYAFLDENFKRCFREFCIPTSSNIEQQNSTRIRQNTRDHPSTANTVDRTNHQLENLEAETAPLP
5-hydroxytryptamine receptor 2A (Homo sapiens), sequence (P28223 whole entry): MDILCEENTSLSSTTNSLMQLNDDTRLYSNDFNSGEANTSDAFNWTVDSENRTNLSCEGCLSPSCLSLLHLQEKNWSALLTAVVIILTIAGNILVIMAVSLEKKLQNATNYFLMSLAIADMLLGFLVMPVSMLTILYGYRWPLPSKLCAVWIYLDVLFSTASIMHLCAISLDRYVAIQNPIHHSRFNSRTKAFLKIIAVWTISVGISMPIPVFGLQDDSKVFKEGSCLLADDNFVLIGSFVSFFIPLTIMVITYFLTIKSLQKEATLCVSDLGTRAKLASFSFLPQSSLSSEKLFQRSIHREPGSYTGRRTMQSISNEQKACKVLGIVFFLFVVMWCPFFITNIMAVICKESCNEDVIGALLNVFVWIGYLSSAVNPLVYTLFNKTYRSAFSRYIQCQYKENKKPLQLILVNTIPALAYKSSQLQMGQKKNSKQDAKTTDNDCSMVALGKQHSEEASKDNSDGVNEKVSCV
D(3) dopamine receptor, sequence (P35462 whole entry): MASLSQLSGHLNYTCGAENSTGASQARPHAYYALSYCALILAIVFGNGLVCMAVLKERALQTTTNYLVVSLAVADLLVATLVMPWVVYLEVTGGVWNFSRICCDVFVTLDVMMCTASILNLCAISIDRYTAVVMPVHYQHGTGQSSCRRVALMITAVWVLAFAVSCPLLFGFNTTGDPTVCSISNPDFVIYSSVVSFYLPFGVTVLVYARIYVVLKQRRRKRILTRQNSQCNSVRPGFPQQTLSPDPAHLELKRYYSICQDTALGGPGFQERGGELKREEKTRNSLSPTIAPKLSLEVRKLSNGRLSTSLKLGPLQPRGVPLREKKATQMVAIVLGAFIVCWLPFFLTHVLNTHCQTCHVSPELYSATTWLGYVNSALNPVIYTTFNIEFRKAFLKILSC
5-hydroxytryptamine receptor 7 (Homo sapiens), sequence (P34969 whole entry): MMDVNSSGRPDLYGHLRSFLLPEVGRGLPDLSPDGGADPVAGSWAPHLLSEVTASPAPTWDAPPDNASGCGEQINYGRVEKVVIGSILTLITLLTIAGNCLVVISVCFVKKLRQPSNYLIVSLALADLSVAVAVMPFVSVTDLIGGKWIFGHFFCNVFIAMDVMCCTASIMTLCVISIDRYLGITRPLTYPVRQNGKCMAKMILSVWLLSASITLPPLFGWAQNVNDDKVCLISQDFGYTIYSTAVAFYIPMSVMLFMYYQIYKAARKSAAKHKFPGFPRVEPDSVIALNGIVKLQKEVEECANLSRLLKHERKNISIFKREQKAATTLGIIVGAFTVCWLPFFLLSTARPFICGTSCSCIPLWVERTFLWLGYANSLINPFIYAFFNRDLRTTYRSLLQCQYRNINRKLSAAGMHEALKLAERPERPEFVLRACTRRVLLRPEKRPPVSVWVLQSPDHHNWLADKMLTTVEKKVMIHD
5-hydroxytryptamine receptor 1B (Homo sapiens), sequence (P28222 whole entry): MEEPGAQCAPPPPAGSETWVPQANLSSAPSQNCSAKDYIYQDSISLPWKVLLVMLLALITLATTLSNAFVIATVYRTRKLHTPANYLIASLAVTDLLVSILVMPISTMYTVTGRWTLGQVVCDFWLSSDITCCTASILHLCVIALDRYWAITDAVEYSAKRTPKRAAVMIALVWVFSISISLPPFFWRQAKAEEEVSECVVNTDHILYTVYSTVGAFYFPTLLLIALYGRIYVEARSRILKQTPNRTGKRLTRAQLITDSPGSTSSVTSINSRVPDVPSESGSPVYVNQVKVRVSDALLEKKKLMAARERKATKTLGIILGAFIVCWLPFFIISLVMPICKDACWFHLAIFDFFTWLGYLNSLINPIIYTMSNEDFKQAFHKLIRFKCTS
Sodium-dependent dopamine transporter, sequence (Q01959 whole entry): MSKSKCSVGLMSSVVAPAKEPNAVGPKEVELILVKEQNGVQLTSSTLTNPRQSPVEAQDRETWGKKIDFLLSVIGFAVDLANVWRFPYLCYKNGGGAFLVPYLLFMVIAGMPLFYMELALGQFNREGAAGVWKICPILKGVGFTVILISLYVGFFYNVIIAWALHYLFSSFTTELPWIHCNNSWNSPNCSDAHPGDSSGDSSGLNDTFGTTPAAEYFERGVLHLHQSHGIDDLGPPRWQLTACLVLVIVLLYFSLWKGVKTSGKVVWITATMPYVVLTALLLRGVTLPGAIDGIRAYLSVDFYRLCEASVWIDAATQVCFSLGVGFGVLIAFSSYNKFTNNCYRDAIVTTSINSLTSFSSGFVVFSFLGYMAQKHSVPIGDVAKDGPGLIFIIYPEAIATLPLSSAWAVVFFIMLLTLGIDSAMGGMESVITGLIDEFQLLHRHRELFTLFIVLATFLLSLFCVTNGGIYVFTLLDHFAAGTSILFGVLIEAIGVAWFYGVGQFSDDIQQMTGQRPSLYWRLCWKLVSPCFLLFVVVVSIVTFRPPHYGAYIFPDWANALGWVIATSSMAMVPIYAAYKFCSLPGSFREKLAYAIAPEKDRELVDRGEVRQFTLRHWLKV
Nitric oxide synthase 1 (Homo sapiens), sequence (P29475 whole entry): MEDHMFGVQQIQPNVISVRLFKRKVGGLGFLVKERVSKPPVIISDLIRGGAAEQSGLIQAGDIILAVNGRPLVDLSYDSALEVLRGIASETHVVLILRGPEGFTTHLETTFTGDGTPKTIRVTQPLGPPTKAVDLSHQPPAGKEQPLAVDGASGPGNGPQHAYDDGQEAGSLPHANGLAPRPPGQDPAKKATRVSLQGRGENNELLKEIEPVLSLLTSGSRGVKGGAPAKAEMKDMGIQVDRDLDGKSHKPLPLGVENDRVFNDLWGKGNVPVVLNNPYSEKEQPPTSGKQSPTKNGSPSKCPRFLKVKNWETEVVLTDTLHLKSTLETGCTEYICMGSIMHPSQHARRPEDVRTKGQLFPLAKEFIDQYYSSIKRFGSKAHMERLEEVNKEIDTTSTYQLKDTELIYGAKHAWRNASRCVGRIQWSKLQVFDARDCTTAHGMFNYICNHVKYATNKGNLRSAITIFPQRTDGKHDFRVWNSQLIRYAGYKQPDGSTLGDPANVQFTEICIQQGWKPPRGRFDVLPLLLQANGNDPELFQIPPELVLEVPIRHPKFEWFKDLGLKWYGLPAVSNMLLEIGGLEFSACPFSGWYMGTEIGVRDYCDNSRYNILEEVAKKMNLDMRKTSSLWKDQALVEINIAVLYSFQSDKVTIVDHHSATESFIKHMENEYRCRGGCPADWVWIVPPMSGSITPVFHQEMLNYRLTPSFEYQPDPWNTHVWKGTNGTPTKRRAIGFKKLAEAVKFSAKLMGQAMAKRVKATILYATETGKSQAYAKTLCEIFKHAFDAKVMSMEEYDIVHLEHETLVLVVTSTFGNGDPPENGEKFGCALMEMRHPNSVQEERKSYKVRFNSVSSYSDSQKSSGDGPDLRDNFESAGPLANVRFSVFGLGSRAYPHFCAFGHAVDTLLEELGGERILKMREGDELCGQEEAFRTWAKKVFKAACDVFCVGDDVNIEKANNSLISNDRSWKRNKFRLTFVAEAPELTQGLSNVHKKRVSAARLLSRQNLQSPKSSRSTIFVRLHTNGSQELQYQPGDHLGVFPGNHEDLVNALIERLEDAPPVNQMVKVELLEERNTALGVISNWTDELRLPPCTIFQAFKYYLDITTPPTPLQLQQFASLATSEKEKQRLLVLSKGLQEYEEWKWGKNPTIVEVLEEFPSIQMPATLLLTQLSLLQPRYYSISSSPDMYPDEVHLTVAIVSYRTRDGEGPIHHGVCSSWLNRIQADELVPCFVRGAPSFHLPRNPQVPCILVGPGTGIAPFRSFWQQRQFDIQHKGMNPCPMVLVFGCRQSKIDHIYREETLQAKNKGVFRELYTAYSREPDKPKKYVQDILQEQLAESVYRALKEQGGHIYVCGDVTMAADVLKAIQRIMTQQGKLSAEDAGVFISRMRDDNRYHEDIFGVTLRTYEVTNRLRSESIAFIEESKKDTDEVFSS
Kappa-type opioid receptor (Homo sapiens), sequence (P41145 whole entry): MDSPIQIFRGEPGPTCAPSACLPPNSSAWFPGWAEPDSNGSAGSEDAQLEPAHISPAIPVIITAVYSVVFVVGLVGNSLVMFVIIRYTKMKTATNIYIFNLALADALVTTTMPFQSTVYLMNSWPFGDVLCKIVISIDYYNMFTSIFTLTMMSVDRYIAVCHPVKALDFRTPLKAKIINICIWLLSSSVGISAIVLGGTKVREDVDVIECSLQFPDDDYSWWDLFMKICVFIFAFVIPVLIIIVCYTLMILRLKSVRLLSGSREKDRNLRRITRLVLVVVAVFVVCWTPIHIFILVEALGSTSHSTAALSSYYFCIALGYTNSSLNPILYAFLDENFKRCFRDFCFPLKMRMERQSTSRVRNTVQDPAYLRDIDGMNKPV

Row | SMILES | inhibition [1] | inhibition [2] | inhibition [5] | inhibition [6] | inhibition [7] | inhibition [8] | inhibition [10] | inhibition [11] | inhibition [12] | inhibition [13] | inhibition [16] | inhibition [17] | inhibition [18] | inhibition [19] | inhibition [20] | inhibition [21] | inhibition [22] | inhibition [24] | inhibition [26] | inhibition [27] | other results
1 | O=C1NCCCC1N1Cc2cc(C3CCN(C(=O)CCCCCN4CCC(c5ccc(Oc6nn7cnnc7c7c6CCCC7)cc5)CC4)CC3)ccc2C1=O (stereo unspecified) | 22% | 21% | 32.5% | 13.8% | -4% | 35.3% | 39% | -7.69% | 22% | 16% | 10.6% | -5% | 13% | 35% | 51.4% | 6% | 14.2% | 11.3% | -8% | -3% | inhibition [3]: 12.8%; inhibition [4]: 10.8%; inhibition [9]: 11.2%; Ki ([14]; read-out: Ki): 525 nM; Ki ([14]; read-out: pKi (converted)): 490 nM; inhibition [15]: 16.6%; inhibition [23]: 10.6%; inhibition [25]: 10.5%; inhibition [28]: 21%
2 | O=C1CCC(N2Cc3cc(C4CCN(C(=O)CCCCCN5CCC(c6ccc(Oc7nn8cnnc8c8c7CCCC8)cc6)CC5)CC4)ccc3C2=O)C(=O)N1 (stereo unspecified) | 17% | 32% | 36.8% | 16.3% | 9% | 7.96% | 35% | 2.82% | 32% | 19% | 15.4% | -7% | -8% | 18% | 50.7% | 25% | 21.9% | 12.7% | -8% | 0% | inhibition [29]: 15.7%; inhibition [30]: 19.4%; inhibition [31]: 12.5%; inhibition [32]: 11.5%; inhibition [33]: 21.8%; inhibition [34]: 10.3%; inhibition [28]: 18.6%
